The source of these data is patent US20260258084A1, “New Peptides as Selective IL-23 Receptor Antagonists” (Sanofi, priority 2022, published 2026).

Structures are written as SMILES. Starred links: 1 amine or outer side, 2 acyl side, 3 side chain; linkers in the order of their positions; H or OH if unused. Positions of bridges follow the written chain, without caps; N, C: chain ends. Non-standard residues stand in square brackets, D forms with d. Residues, ends and D or L forms follow the SMILES beside them. *: point of attachment. X3 = CN(CCCCC(=O)N[C@@H](CS[*:2])C(=O)[*:1])[*:3]; Trp(7-Me) = Cc1cccc2c(C[C@H](N)C(=O)O)c[nH]c12; X1 = O=C(CCCCN[*:3])N[C@@H](CS[*:2])C(=O)[*:1]; αMeLys(Me2) = CN(C)CCCC[C@](C)(N)C(=O)O; X2 = CN(C)[C@@H](CCCCN[*:1])C(=O)[*:2]; 2Nal = N[C@@H](Cc1ccc2ccccc2c1)C(=O)O; AEF = NCCOc1ccc(C[C@H](N)C(=O)O)cc1; 3Pal = N[C@@H](Cc1cccnc1)C(=O)O; αMeL = CC(C)C[C@](C)(N)C(=O)O; Thp = NC1(C(=O)O)CCOCC1; Me2NCH2CH2 = CN(C)CC*; Aib = CC(C)(N)C(=O)O; Ahx = NCCCCCC(=O)O; Ava = NCCCCC(=O)O; βAla = NCCC(=O)O; Sar = CNCC(=O)O

The data set concerns Pancreatin. The experiment in a line: Protease stability in simulated intestinal fluid (Pancreatin-SIF, FaSSIF). The conditions noted are these: 1 μM peptide, 37° C.; for remaining at 1 h, 1 µM: 60 min, read-out: FaSSIF 60 (min), remaining percent of peptide; for remaining at 2 h, 1 µM: 120 min, read-out: FaSSIF 120 (min), remaining percent of peptide; for remaining at 4 h, 1 µM: 240 min, read-out: FaSSIF 240 (min), remaining percent of peptide. It counts as in vitro ADME. An outline of the steps: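 Peptide (1 μM final) was incubated at 37° C in simulated intestinal fluid containing pancreatin (1 mg per 10 mL SIF concentrate). Samples were quenched with ethanol/0.1% HCOOH at 0, 60, 120 and 240 min and analysed by LC-MS/MS. Percent remaining is the peak area relative to time 0 (100%).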

Regarding `CC(=O)N[C@H]1CCCCNC(=O)[C@@H]2CSSC[C@H](NC(=O)[C@H](CCC(N)=O)NC(=O)[C@H](Cc3c[nH]c4ccccc34)NC1=O)C(=O)N[C@@H](Cc1ccc(OCCN)cc1)C(=O)N[C@@H](Cc1ccc3ccccc3c1)C(=O)N[C@@](C)(CC(C)C)C(=O)N[C@H](C(=O)N[C@@H](C)C(=O)NCC(N)=O)CCC(=O)N(C)CCCCC(=O)N2` [compound 18] (Ac-KWQC[AEF][2Nal][αMeL]EAG-NH2; linker 1-4-8 via X3), the fraction remaining at 1 h, 1 µM was 81%; the fraction remaining at 2 h, 1 µM is 76%; the fraction remaining at 4 h, 1 µM is 76%.

For the molecule `CC(=O)N[C@H]1CCCCNC(=O)[C@@H]2CSSC[C@H](NC(=O)[C@H](CCC(N)=O)NC(=O)[C@H](Cc3c[nH]c4ccccc34)NC1=O)C(=O)N[C@@H](Cc1ccc(OCCN(C)C)cc1)C(=O)N[C@@H](Cc1ccc3ccccc3c1)C(=O)NC1(CCOCC1)C(=O)N[C@H](C(=O)N[C@@H](C)C(=O)N[C@H](CC(C)C)C(N)=O)CCC(=O)NCCCCC(=O)N2` [compound 33] (Ac-KWQCY(Me2NCH2CH2)[2Nal][Thp]EA[dL]-NH2; linker 1-4-8 via X1), the share remaining at 1 h, 1 µM is 100%; the share remaining at 2 h, 1 µM was 100%; the share remaining at 4 h, 1 µM was 85%.

As to `CC(=O)N[C@H]1CCCCNC(=O)[C@@H]2CSSC[C@H](NC(=O)[C@H](CCC(N)=O)NC(=O)[C@H](Cc3c[nH]c4ccccc34)NC1=O)C(=O)N[C@@H](Cc1ccc(OCCN)cc1)C(=O)N[C@@H](Cc1ccc3ccccc3c1)C(=O)N[C@@](C)(CC(C)C)C(=O)N[C@H](C(=O)N[C@@H](CC(N)=O)C(=O)N[C@@H](CC(N)=O)C(N)=O)CCC(=O)N(C)CCCCC(=O)N2` [compound 14] (Ac-KWQC[AEF][2Nal][αMeL]ENN-NH2; linker 1-4-8 via X3), the fraction remaining at 1 h, 1 µM is 83%; the amount remaining at 2 h, 1 µM was 68%; the share remaining at 4 h, 1 µM was 49%.

Turning to `CC(=O)N[C@H]1CCCCNC(=O)[C@@H]2CSSC[C@H](NC(=O)[C@H](CCC(N)=O)NC(=O)[C@H](Cc3c[nH]c4ccccc34)NC1=O)C(=O)N[C@@H](Cc1ccc(OCCN)cc1)C(=O)N[C@@H](Cc1ccc3ccccc3c1)C(=O)NC(C)(C)C(=O)N[C@H](C(=O)N[C@@H](CC(N)=O)C(=O)N[C@@H](CC(N)=O)C(N)=O)CCC(=O)N(C)CCCCC(=O)N2` [compound 12] (Ac-KWQC[AEF][2Nal][Aib]ENN-NH2; linker 1-4-8 via X3), the share remaining at 1 h, 1 µM is 74%; the share remaining at 2 h, 1 µM is 59%; the share remaining at 4 h, 1 µM is 41%.

For the molecule `C[C@@H](O)[C@@H]1NC(=O)[C@H](CC(N)=O)NC(=O)[C@@H]2CSSC[C@H](NC(=O)[C@H](CCC(N)=O)NC(=O)[C@H](Cc3c[nH]c4ccccc34)NC1=O)C(=O)N[C@@H](Cc1ccc(OCCN)cc1)C(=O)N[C@@H](Cc1ccc3ccccc3c1)C(=O)NC(C)(C)C(=O)N[C@H](C(=O)N[C@@H](CC(N)=O)C(=O)NCC(N)=O)CC(=O)NCCCCCC(=O)N2` [compound 9] ([Ahx]CNTWQC[AEF][2Nal][Aib]DNG-NH2; disulfide 2-7; lactam N-11), the amount remaining at 1 h, 1 µM is 102%; the fraction remaining at 2 h, 1 µM is 100%; the share remaining at 4 h, 1 µM is 85%.

For the molecule `Cc1cccc2c(C[C@@H]3NC(=O)[C@H]([C@@H](C)O)NC(=O)[C@H](CC(N)=O)NC(=O)[C@@H]4CSSC[C@H](NC(=O)[C@H](CC(C)C)NC3=O)C(=O)N[C@@H](Cc3ccc(OCCN(C)C)cc3)C(=O)N[C@@H](Cc3ccc5ccccc5c3)C(=O)NC3(CCOCC3)C(=O)N[C@H](C(=O)N[C@@H](CC(N)=O)C(=O)N[C@@H](Cc3cccnc3)C(=O)N(C)CC(N)=O)CCC(=O)NCCCCC(=O)N4)c[nH]c12` [compound 24] ([Ava]CNT[Trp(7-Me)]LCY(Me2NCH2CH2)[2Nal][Thp]EN[3Pal][Sar]-NH2; disulfide 2-7; lactam N-11), the share remaining at 1 h, 1 µM is 80%; the share remaining at 2 h, 1 µM is 79%; the amount remaining at 4 h, 1 µM was 76%.

Turning to `CC(=O)NCCCC[C@@H]1NC(=O)[C@H](Cc2c[nH]c3c(C)cccc23)NC(=O)[C@H]([C@@H](C)O)NC(=O)[C@H](CC(N)=O)NC(=O)[C@@H]2CSSC[C@H](NC1=O)C(=O)N[C@@H](Cc1ccc(OCCN(C)C)cc1)C(=O)N[C@@H](Cc1ccc3ccccc3c1)C(=O)NC1(CCOCC1)C(=O)N[C@H](C(=O)N[C@@H](CC(N)=O)C(=O)N[C@@H](Cc1c[nH]cn1)C(=O)NCCC(N)=O)CCC(=O)NCCCCC(=O)N2` [compound 49] ([Ava]CNT[Trp(7-Me)]K(Ac)CY(Me2NCH2CH2)[2Nal][Thp]ENH[βAla]-NH2; disulfide 2-7; lactam N-11), the amount remaining at 1 h, 1 µM is 85%; the fraction remaining at 2 h, 1 µM was 75%; the share remaining at 4 h, 1 µM was 74%.

On to `CC(=O)NCCCC[C@@H]1NC(=O)[C@H](Cc2c[nH]c3c(C)cccc23)NC(=O)[C@H]([C@@H](C)O)NC(=O)[C@H](CC(N)=O)NC(=O)[C@@H]2CSSC[C@H](NC1=O)C(=O)N[C@@H](Cc1ccc(OCCN(C)C)cc1)C(=O)N[C@@H](Cc1ccc3ccccc3c1)C(=O)NC1(CCOCC1)C(=O)N[C@H](C(=O)N[C@@H](CC(N)=O)C(=O)N[C@@H](Cc1cccnc1)C(N)=O)CCC(=O)NCCCCC(=O)N2` [compound 51] ([Ava]CNT[Trp(7-Me)]K(Ac)CY(Me2NCH2CH2)[2Nal][Thp]EN[3Pal]-NH2; disulfide 2-7; lactam N-11), for which the fraction remaining at 1 h, 1 µM was 92%; the share remaining at 2 h, 1 µM was 86%; the amount remaining at 4 h, 1 µM is 78%.

For `CC(=O)N[C@H]1CCCCNC(=O)[C@@H]2CSSC[C@H](NC(=O)[C@H](CCC(N)=O)NC(=O)[C@H](Cc3c[nH]c4ccccc34)NC1=O)C(=O)N[C@@H](Cc1ccc(OCCN)cc1)C(=O)N[C@@H](Cc1ccc3ccccc3c1)C(=O)NC1(CCOCC1)C(=O)N[C@H](C(=O)N[C@@H](C)C(=O)N[C@H](CC(C)C)C(N)=O)CCC(=O)N(C)CCCCC(=O)N2` [compound 34] (Ac-KWQC[AEF][2Nal][Thp]EA[dL]-NH2; linker 1-4-8 via X3), the fraction remaining at 1 h, 1 µM is 100%; the amount remaining at 2 h, 1 µM was 99%; the amount remaining at 4 h, 1 µM was 96%.

Regarding `CC(C)C[C@]1(C)NC(=O)[C@H](Cc2ccc3ccccc3c2)NC(=O)[C@H](Cc2ccc(OCCN(C)C)cc2)NC(=O)[C@@H]2CSSC[C@H](NC(=O)CCCCNC(=O)CC[C@@H](C(=O)N[C@@H](CC(N)=O)C(=O)N[C@@H](CC(N)=O)C(N)=O)NC1=O)C(=O)N[C@@H](CC(N)=O)C(=O)N[C@@H]([C@@H](C)O)C(=O)N[C@@H](Cc1c[nH]c3ccccc13)C(=O)N[C@@H](CCC(N)=O)C(=O)N2` [compound 27] ([Ava]CNTWQCY(Me2NCH2CH2)[2Nal][αMeL]ENN-NH2; disulfide 2-7; lactam N-11), the amount remaining at 1 h, 1 µM is 81%; the amount remaining at 2 h, 1 µM was 82%; the share remaining at 4 h, 1 µM was 73%.

For the molecule `CC(=O)N[C@H]1CCCCNC(=O)[C@@H]2CSSC[C@H](NC(=O)[C@H](CCC(N)=O)NC(=O)[C@H](Cc3c[nH]c4ccccc34)NC1=O)C(=O)N[C@@H](Cc1ccc(OCCN)cc1)C(=O)N[C@@H](Cc1ccc3ccccc3c1)C(=O)N[C@@](C)(CC(C)C)C(=O)N[C@H](C(=O)N[C@@H](C)C(=O)N[C@H](CC(C)C)C(N)=O)CCC(=O)N(C)CCCCC(=O)N2` [compound 44] (Ac-KWQC[AEF][2Nal][αMeL]EA[dL]-NH2; linker 1-4-8 via X3), the amount remaining at 1 h, 1 µM was 64%; the share remaining at 2 h, 1 µM was 61%; the amount remaining at 4 h, 1 µM is 59%.

With `CC(=O)NCCCC[C@@H]1NC(=O)[C@H](Cc2c[nH]c3ccccc23)NC(=O)[C@@H](N(C)C)CCCCNC(=O)[C@@H]2CSSC[C@H](NC1=O)C(=O)N[C@@H](Cc1ccc(OCCN(C)C)cc1)C(=O)N[C@@H](Cc1ccc3ccccc3c1)C(=O)N[C@@](C)(CCCCN(C)C)C(=O)N[C@H](C(=O)N[C@@H](CC(N)=O)C(=O)N[C@@H](Cc1cccnc1)C(=O)N(C)CC(N)=O)CCC(=O)NCCCCC(=O)N2` [compound 36] ([Ava]C[X2]WK(Ac)CY(Me2NCH2CH2)[2Nal][αMeLys(Me2)]EN[3Pal][Sar]-NH2; disulfide 2-6; lactam N-10), the fraction remaining at 1 h, 1 µM is 97%; the share remaining at 2 h, 1 µM is 93%; the fraction remaining at 4 h, 1 µM is 92%.

Turning to `CC(=O)N[C@H]1CCCCNC(=O)[C@@H]2CSSC[C@H](NC(=O)[C@H](CCC(N)=O)NC(=O)[C@H](Cc3c[nH]c4ccccc34)NC1=O)C(=O)N[C@@H](Cc1ccc(OCCN)cc1)C(=O)N[C@@H](Cc1ccc3ccccc3c1)C(=O)NC(C)(C)C(=O)N[C@H](C(=O)N[C@@H](CC(N)=O)C(=O)NCC(N)=O)CCC(=O)N(C)CCCCC(=O)N2` [compound 15] (Ac-KWQC[AEF][2Nal][Aib]ENG-NH2; linker 1-4-8 via X3), the share remaining at 1 h, 1 µM is 81%; the share remaining at 2 h, 1 µM is 65%; the share remaining at 4 h, 1 µM was 43%.

With `CC(=O)N[C@H]1CCCCNC(=O)[C@@H]2CSSC[C@H](NC(=O)[C@H](CCC(N)=O)NC(=O)[C@H](Cc3c[nH]c4ccccc34)NC1=O)C(=O)N[C@@H](Cc1ccc(OCCN(C)C)cc1)C(=O)N[C@@H](Cc1ccc3ccccc3c1)C(=O)NC(C)(C)C(=O)N[C@H](C(=O)N[C@@H](C)C(=O)NCC(N)=O)CCC(=O)NCCCCC(=O)N2` [compound 32] (Ac-KWQCY(Me2NCH2CH2)[2Nal][Aib]EAG-NH2; linker 1-4-8 via X1), the fraction remaining at 1 h, 1 µM is 89%; the amount remaining at 2 h, 1 µM was 77%; the amount remaining at 4 h, 1 µM was 55%.

Regarding `CC(=O)NCCCC[C@@H]1NC(=O)[C@H](Cc2c[nH]c3c(C)cccc23)NC(=O)[C@H]([C@@H](C)O)NC(=O)[C@H](CC(N)=O)NC(=O)[C@@H]2CSSC[C@H](NC1=O)C(=O)N[C@@H](Cc1ccc(OCCN(C)C)cc1)C(=O)N[C@@H](Cc1ccc3ccccc3c1)C(=O)NC(C)(C)C(=O)N[C@H](C(=O)N[C@@H](CC(N)=O)C(=O)N[C@@H](Cc1c[nH]cn1)C(=O)NCCC(N)=O)CCC(=O)NCCCCC(=O)N2` [compound 48] ([Ava]CNT[Trp(7-Me)]K(Ac)CY(Me2NCH2CH2)[2Nal][Aib]ENH[βAla]-NH2; disulfide 2-7; lactam N-11), the fraction remaining at 1 h, 1 µM was 80%; the fraction remaining at 2 h, 1 µM was 80%; the amount remaining at 4 h, 1 µM is 76%.
